Here are results for 20 compounds from patent US7169932B2 (priority 2001, dated 2007).

SMILES strings stand for the structures. Where two headings read alike, the source gives them in different places.

For one experiment, the system named is HIV-1. Put plainly: Cytopathic Effect (CPE) Inhibition Assay (XTT dye reduction). The format is cell-based. As for the experimental part: T-cell lines, CEM-SS, and MT-2, and viruses HIV-1 RF and HIV-1 NL4–3 (pNL4–3) were obtained from the National Institutes of Health (AIDS Research and Reference Reagent Program, Bethesda, Md.).
The ability of compounds to protect cells against HIV infection was measured by the […] dye reduction method, essentially as described (See Pauwels, R. Balzarini, J. Baba, M. Snoeck, R. Schols, D. Herdewijn, P. Desmyter, J. and De Clercq, E. 1988, “Rapid and automated tetrazolium-based colorimetric assay for the detection of anti-HIV compounds,”. J Virol Methods., 20: 309–321 and Weislow, O. S. Kiser, R. Fine, D. L. Bader, J. Shoemaker, R. H. and Boyd, M. R. 1989. “New soluble-formazan assay for HIV-1 cytopathic effects: application to high-flux screening of synthetic and natural products for AIDS-antiviral activity”. J. Natl. Cancer Inst. 81:577–586). Subject cells were infected with test virus at an moi of 0.025 to 0.819 or mock infected with medium only and added at 2×10^4 cells per well into 96 well plates containing half-log dilutions of test compounds. Six days later, 50 μl of XTT (1 mg/ml XTT tetrazolium, […] phenazine methosulfate) was added to the wells and the plate was reincubated for four hours. Viability, as determined by the amount of XTT formazan produced, was quantified spectrophotometrically by absorbance at 450 nm. Data from CPE assays were expressed as the percent of formazan produced in compound-treated cells compared to formazan produced in wells of uninfected, compound-free cells. The fifty percent effective concentration (EC50) was calculated as the concentration of compound that effected an increase in the percentage of formazan production in infected, compound-treated cells to 50% of that produced by uninfected, compound-free cells. The 50% cytotoxicity concentration (CC50) was calculated as the concentration of compound that decreased the percentage of formazan produced in uninfected, compound-treated cells to 50% of that produced in uninfected, compound-free cells. The therapeutic index was calculated by dividing the cytotoxicity (CC50) by the antiviral activity (EC50).

The target in a further experiment is T1, HIV-1 protease (Q7S) (Human immunodeficiency virus type 1 group M subtype B, UniProt P04585, Q495S).
T1 construct: made in house
Put plainly: HIV-1 Protease RET Assay. The format is biochemical. As for the experimental part:
Ki's for the inhibitors of HIV-1 protease were determined using a resonance energy transfer (RET) assay. […] This enzyme is first partially purified as inclusion bodies from cell lysate. It is then solublized in 8M urea and passed through a Q-Sepharose column (Pharmacia) for further purification. To refold this protein, samples containing Q7S is dialyzed into 50 mM sodium phosphate pH 7.0, 50 mM NaCl, 10 mM DTT, and 10% glycerol.
The commercially available peptide substrate (Molecular Probes Cat. # H-2930) RE(EDANS)SQNYPIVQK(DABCYL)R is used to assess activity and Ki's. This peptide is cleaved quantitatively by HIV-1 Pr at the Tyr-Pro bond. The EDANS fluorophore absorbs at 340 nm and emits at 490 nm. The reaction is carried out in a 96 well plate in a total volume of 100 μL and is run for 12 minutes at 37 C under steady-state conditions with 5 μM substrate and 2 nM active dimer enzyme concentration. The literature value Km for this substrate and enzyme is 103+/−8 μM (See Matayoshi, et al., “Novel Fluorogenic Substrates for Assaying Retroviral Proteases by Resonance Energy Transfer,” Science 247, 954 (1990)). The buffer for this reaction is 0.1M sodium acetate pH 4.8, 1M NaCl, 1 mM EDTA, 5 mM dithiothreitol, 10% dimethyl sulfoxide and 1 mg/ml bovine serum albumin. Inhibition curves are fit using the Morrison tight binding equation.

The mark [1] stands for this setting: Ki, table of drawn compounds, unit inferred.
The mark [2] stands for this setting: Human immunodeficiency virus 1, 144 h, read-out: Ave CPE EC50 (mM).
Where [3] appears, read: Ave. Ki (nM), RET assay, Q7S enzyme, pH 4.8, 37 C.

Usually EC50 stands for the midpoint of the concentration-response curve. One may read the Ki as a measure of affinity in units of concentration, obtained from inhibition or displacement. Lower therefore signals a stronger hold on the target. `Cc1c(O)cccc1C(=O)N[C@@H](Cc1ccccc1)[C@H](O)C(=O)N1CSC(C)(C)[C@H]1C(=O)NCc1cc(F)c(F)cc1F` registered an EC50 in the experiment with HIV-1 (Human immunodeficiency virus 1) of 289 nM. This compound yielded a Ki on HIV-1 protease (Q7S) (setting [1]) of 0.17 nM.

In turn, `Cc1c(O)cccc1C(=O)N[C@@H](Cc1ccccc1)[C@H](O)C(=O)N1CSC(C)(C)C1C(=O)NCCC(C)C` (stereo partly shown) had an EC50 in the experiment on HIV-1 (Human immunodeficiency virus 1) of 72 nM. Further, on HIV-1 protease (Q7S) (setting [1]), the Ki was ≤ 0.1 nM.

As for `COc1ccc(C(=O)NC(Cc2ccccc2)C(O)C(=O)N2CSC(C)(C)[C@H]2C(=O)NCc2ccccc2C)c(C)c1` (stereo in doubt) [Example B29, 3-[2-Hydroxy-3-(4-methoxy-2-methyl-benzoylamino)-4-phenyl-butyryl]-5,5-dimethyl-thiazolidine-4-carboxylic acid 2-methyl-benzylamide], the EC50 with HIV-1 (setting [2]) turned out to be 1260 nM. Moreover, the Ki at HIV-1 protease (Q7S) (setting [3]) worked out at 0.12 nM.

As for `Cc1ccccc1CNC(=O)[C@H]1N(C(=O)[C@@H](O)[C@H](Cc2ccccc2)NC(=O)c2cccc(N)n2)CSC1(C)C` [Example B40, 6-Amino-pyridine-2-carboxylic acid {(1S,2S)-1-benzyl-3-[(R)-5,5-dimethyl-4-(2-methyl-benzylcarbamoyl)-thiazolidin-3-yl]-2-hydroxy-3-oxo-propyl}-amide], in the experiment with HIV-1 (setting [2]), the concentration for a half-maximal effect (EC50) came out at 1400 nM. In addition, the Ki at HIV-1 protease (Q7S) (setting [3]) is 2.8 nM.

On to `Cc1c(O)cccc1C(=O)N[C@@H](Cc1ccccc1)[C@H](O)C(=O)N1CSC(C)(C)[C@H]1C(=O)NCCc1ccccc1` [Example A19, (R)-3-((2S,3S)-2-Hydroxy-3-{[1-(3-hydroxy-2-methyl-phenyl)-methanoyl]-amino}-4-phenyl-butanoyl)-5,5-dimethyl-thiazolidine-4-carboxylic acid phenethyl-amide], for which the EC50 in the experiment on HIV-1 (setting [2]) was 442 nM. The compound further returned a Ki at HIV-1 protease (Q7S) (setting [3]) of 10 nM.

Compound `Cc1cccc(CNC(=O)[C@H]2N(C(=O)[C@@H](O)[C@H](Cc3ccccc3)NC(=O)c3cccc(O)c3C)CSC2(C)C)c1` registered an EC50 with HIV-1 (Human immunodeficiency virus 1) of 76 nM. The affinity on HIV-1 protease (Q7S) (setting [1]) corresponds to a Ki of 1.5 nM.

Turning to `Cc1c(O)cccc1C(=O)N[C@@H](Cc1ccccc1)[C@H](O)C(=O)N1CSC(C)(C)[C@H]1C(=O)NCc1ccc(N(C)C)cc1` [Example A15, (R)-3-((2S,3S)-2-Hydroxy-3-{[1-(3-hydroxy-2-methyl-phenyl)-methanoyl]-amino}-4-phenyl-butanoyl)-5,5-dimethyl-thiazolidine-4-carboxylic acid 4-dimethylamino-benzylamide], the EC50 in the experiment on HIV-1 (setting [2]) turned out to be 130 nM. The inhibition constant (Ki) at HIV-1 protease (Q7S) (setting [3]) was found to be 10.9 nM.

Take `Cc1ccc(F)cc1CNC(=O)[C@H]1N(C(=O)[C@@H](O)[C@H](Cc2ccccc2)NC(=O)c2cccc(O)c2C)COC1(C)C` [Example C9, (S)-3-((2S,3S)-2-Hydroxy-3-{[1-(3-hydroxy-2-methyl-phenyl)-methanoyl]-amino}-4-phenyl-butanoyl)-5,5-dimethyl-oxazolidine-4-carboxylic acid 5-fluoro-2-methyl-benzylamide]: the EC50 in the experiment with HIV-1 (setting [2]) was found to be 233 nM. At HIV-1 protease (Q7S) (setting [3]), this compound registered a Ki of 0.34 nM.

On to `C=CCN(C)C(=O)[C@H]1N(C(=O)[C@@H](O)[C@H](Cc2ccccc2)NC(=O)c2cccc(O)c2C)CSC1(C)C` [Example A23, (R)-3-((2S,3S)-2-Hydroxy-3-{[1-(3-hydroxy-2-methyl-phenyl)-methanoyl]-amino}-4-phenyl-butanoyl)-5,5-dimethyl-thiazolidine-4-carboxylic acid allyl-methyl-amide], for which the EC50 with HIV-1 (setting [2]) stood at 72 nM. At HIV-1 protease (Q7S) (setting [3]), affinity was put at a Ki of 0.65 nM.

With `Cc1c(O)cccc1C(=O)N[C@@H](Cc1ccccc1)[C@H](O)C(=O)N1CSC(C)(C)[C@H]1C(=O)NCc1cccc(N)c1` [Example A29, (R)-3-((2S,3S)-2-Hydroxy-3-{[1-(3-hydroxy-2-methyl-phenyl)-methanoyl]-amino}-4-phenyl-butanoyl)-5,5-dimethyl-thiazolidine-4-carboxylic acid 3-amino-benzylamide], in the experiment on HIV-1 (setting [2]), the EC50 amounted to 117 nM. On HIV-1 protease (Q7S) (setting [3]), the Ki was < 0.1 nM.

In the experiment with HIV-1 (Human immunodeficiency virus 1), `Cc1c(O)cccc1C(=O)N[C@@H](Cc1ccccc1)[C@H](O)C(=O)N1CSC(C)(C)[C@H]1C(=O)NCc1cccc(CN(C)C)c1` showed an EC50 of 3200 nM. The same compound displayed a Ki on HIV-1 protease (Q7S) (setting [1]) of 10.5 nM.

For `Cc1ccccc1CNC(=O)[C@H]1N(C(=O)[C@@H](O)[C@H](Cc2ccccc2)NC(=O)c2ccon2)CSC1(C)C` [Example B3, Isoxazole-3-carboxylic acid {(1S,2S)-1-benzyl-3-[(R)-5,5-dimethyl-4-(2-methyl-benzylcarbamoyl)-thiazolidin-3-yl]-2-hydroxy-3-oxo-propyl}-amide], the half-maximal effective concentration (EC50) in the experiment with HIV-1 (setting [2]) was 409 nM. For the same compound, on HIV-1 protease (Q7S) (setting [3]), the affinity, expressed as Ki, was 4 nM.

As to `Cc1c(O)cccc1C(=O)N[C@@H](Cc1ccccc1)[C@H](O)C(=O)N1CSC(C)(C)[C@H]1C(=O)NCc1ccc(C(F)(F)F)c(F)c1` [Example A11], the EC50 in the experiment with HIV-1 (setting [2]) turned out to be 930 nM. On HIV-1 protease (Q7S) (setting [3]), the Ki came out at 19 nM.

For `CCCNC(=O)[C@H]1N(C(=O)[C@@H](O)[C@H](Cc2ccccc2)NC(=O)c2ccccc2C)CSC1(C)C` [Example B30, (R)-3-{(2S,3S)-2-Hydroxy-4-phenyl-3-[(1-o-tolyl-methanoyl)-amino]-butanoyl}-5,5-dimethyl-thiazolidine-4-carboxylic acid propylamide], the EC50 in the experiment on HIV-1 (setting [2]) stood at 1230 nM. On HIV-1 protease (Q7S) (setting [3]), this compound gave a Ki of 1.1 nM.

Regarding `Cc1noc(C)c1C(=O)N[C@@H](Cc1ccccc1)[C@H](O)C(=O)N1CSC(C)(C)[C@H]1C(=O)NCc1ccccc1Cl` [Example B23, 3,5-Dimethyl-isoxazole-4-carboxylic acid {1-benzyl-3-[4-(2-chloro-benzylcarbamoyl)-5,5-dimethyl-thiazolidin-3-yl]-2-hydroxy-3-oxo-propyl}-amide], the EC50 in the experiment on HIV-1 (setting [2]) amounted to 1420 nM. The compound further had a Ki on HIV-1 protease (Q7S) (setting [3]) of 0.42 nM.

For `Cc1ccccc1CNC(=O)[C@H]1N(C(=O)[C@@H](O)[C@H](Cc2ccccc2)NC(=O)c2cccn2C)CSC1(C)C` [Example B12, (R)-3-{(2S,3S)-2-Hydroxy-3-[(1-methyl-1H-pyrrole-2-carbonyl)-amino]-4-phenyl-butyryl}-5,5-dimethyl-thiazolidine-4-carboxylic acid 2-methyl-benzylamide], in the experiment on HIV-1 (setting [2]), the half-maximal effective concentration (EC50) came to 1400 nM. On HIV-1 protease (Q7S) (setting [3]), this compound registered a Ki of 0.45 nM.

As for `Cc1ccccc1CNC(=O)[C@H]1N(C(=O)[C@@H](O)[C@H](Cc2ccccc2)NC(=O)c2sc(N)nc2C)CSC1(C)C` [Example B15, 2-Amino-4-methyl-thiazole-5-carboxylic acid {(S)-1-benzyl-3-[5,5-dimethyl-4-(2-methyl-benzylcarbamoyl)-thiazolidin-3-yl]-2-hydroxy-3-oxo-propyl}-amide], in the experiment on HIV-1 (setting [2]), the EC50 is 1090 nM. Besides, at HIV-1 protease (Q7S) (setting [3]), the Ki stood at 2 nM.

Consider `Cn1cccc1C(=O)N[C@@H](Cc1ccccc1)[C@H](O)C(=O)N1CSC(C)(C)[C@H]1C(=O)NCc1ccccc1C(F)(F)F` [Example B26, 3-{2-Hydroxy-3-[(1-methyl-1H-pyrrole-2-carbonyl)-amino]-4-phenyl-butyryl}-5,5-dimethyl-thiazolidine-4-carboxylic acid 2-trifluoromethyl-benzylamide], for which, in the experiment with HIV-1 (setting [2]), the EC50 was found to be 1710 nM. This compound also returned a Ki at HIV-1 protease (Q7S) (setting [3]) of 2.9 nM.

`Cc1c(O)cccc1C(=O)N[C@@H](Cc1ccccc1)[C@H](O)C(=O)N1CSC(C)(C)[C@H]1C(=O)NCc1ccc(F)c(F)c1F` came in with an EC50 with HIV-1 (Human immunodeficiency virus 1) of 334 nM. Also, affinity at HIV-1 protease (Q7S) (setting [1]) was put at a Ki of 0.11 nM.

`Cc1ccc(CNC(=O)[C@H]2N(C(=O)[C@@H](O)[C@H](Cc3ccccc3)NC(=O)c3cccc(O)c3C)CSC2(C)C)cc1` returned an EC50 with HIV-1 (Human immunodeficiency virus 1) of 141 nM. This compound gave a Ki on HIV-1 protease (Q7S) (setting [1]) of 0.73 nM.
